Reference: patent US9474740B2, “Ectoparasite control agent” (Nippon Soda Co., Ltd., priority 2013, dated 2016)

Assays:
[1] = tested on: American dog mites (Dermacentor variabilis) in nymph stage; assay: Acaricidal test of rodent (RAT) in vivo; details: Sprague-Dawley rat, topical 0.05 ml in acetone, effective component concentration of 1% or less (10 mg/ml), 48 hours after the treatment, read-out: efficacy (reduction % in the number of surviving mites)
Text: Evaluation of the test compounds can be performed by a method obtained by modifying the analysis method described in “J. Med. Entomol. 43 (3) 526-532 (2006)”. In the analysis method, other mite species (in references, described as a mite of Amblyomma americanum) can be also used, and, for example, other mite species such as a mite of Dermacentor variabilis can be also used. A mite-holding unit (which was configured of small size nipples, a crew cap with a vent, and a reinforcing rubber washer) was attached to the back of an adult Sprague-Dawley rat. After attaching the holding unit, 0.05 ml of a test compound dissolved in acetone was applied topically on the skin surface inside the holding unit. After leaving to stand for a sufficient period of time to evaporate the acetone, about 10 American dog mites (Dermacentor variabilis) in nymph stage, to which food was not given, were put into each holding unit. Three to five rats per treatment group were used. 48 hours after the treatment, the holding unit was removed, and the surviving mites and dead mites were counted. In the evaluation of efficacy, geometric mean calculation was used. First, the total number of surviving mites was converted by the natural logarithm transformation by adding 1 (Ln total number+1). That is, by adding 1 to each total number, the total number which was zero was adjusted. The geometric mean (GM) of the total number of mites in a treatment group was obtained by inverse-transforming the mean transformation value of the total number of treatment groups and subtracting 1. The non-treated control group was used for comparison with the groups in which the test compound was given for calculation of efficacy % (reduction % in the number of surviving mites). […] Efficacy [%]=[(survival mites GM number of control−survival mites GM number of treatment groups)/(survival mites GM number of control)×100

Rhipicephalus sanguineus = assay: Parasite extermination test of dog in vivo, R. sanguineus
Description: Each type of the test compounds was applied to four dogs. One day before treatment (−1 day) of the test compound, about 50 adults of Rhipicephalus sanguineus to which food was not given, per dog, were parasitized. It was estimated that 50% of the 50 ticks were male and 50% of the 50 ticks were female. Separately, the tested compound was dissolved in a mixed solvent consisting of 80% by volume of benzyl alcohol and 20% by volume of isopropyl myristate such that the concentration became 50 mg/ml, whereby a test solution was prepared. On zeroth day, several different spots of the interscapular region were treated with the test solution by “topical spot-on” such that the test compound was treated per 20 mg/kg per body weight of a dog. For comparison, a negative control was also prepared. In order to evaluate the treatment against the parasitized ticks, survival of the ticks were observed on the 2nd day (48 hours after the treatment). To evaluate the durability, on the 5th, 12th, 19th, and 28th day, 50 ticks to which food was not given, per dog, were parasitized again. On the 7th, 14th, 21 st, 30th and 35th day, 48 hours after each was parasitized, survival of the ticks and mites were observed, and the ticks and mites were removed from the dogs. The ticks were classified according to whether or not the ticks were attached, and the survival state was determined. In the evaluation of efficacy, the same geometric mean calculation as that in Test Example 2 was used. […] In addition, for Test Compound 1 to 32, the test compounds were treated per 5 mg/kg per body weight of an individual with respect to a dog.

[2] = tested on: fleas (Ctenocephalides felis); assay: Parasite extermination test of dog in vivo, C. felis; details: topical spot-on 20 mg/kg
Description: Each type of the test compounds was applied to four dogs. One day before treatment (−1 day) of the test compound, about 50 adults of Rhipicephalus sanguineus to which food was not given, per dog, were parasitized. It was estimated that 50% of the 50 ticks were male and 50% of the 50 ticks were female.
Separately, the tested compound was dissolved in a mixed solvent consisting of 80% by volume of benzyl alcohol and 20% by volume of isopropyl myristate such that the concentration became 50 mg/ml, whereby a test solution was prepared.
On zeroth day, several different spots of the interscapular region were treated with the test solution by “topical spot-on” such that the test compound was treated per 20 mg/kg per body weight of a dog. For comparison, a negative control was also prepared.
In addition, on the 12th and 28th day, 50 adult fleas (Ctenocephalides felis) to which food was not given were parasitized together.
On the 7th, 14th, 21 st, 30th and 35th day, 48 hours after each was parasitized, survival of the ticks and mites were observed, and the ticks and mites were removed from the dogs. The ticks were classified according to whether or not the ticks were attached, and the survival state was determined.
In the evaluation of efficacy, the same geometric mean calculation as that in Test Example 2 was used.

[3] = tested on: American dog mites (Dermacentor variabilis); assay: Parasite extermination test of dog in vivo, D. variabilis; details: topical spot-on 20 mg/kg, 35th day
Description: Each type of the test compounds was applied to four dogs. One day before treatment (−1 day) of the test compound, about 50 adults of Rhipicephalus sanguineus to which food was not given, per dog, were parasitized. It was estimated that 50% of the 50 ticks were male and 50% of the 50 ticks were female. Separately, the tested compound was dissolved in a mixed solvent consisting of 80% by volume of benzyl alcohol and 20% by volume of isopropyl myristate such that the concentration became 50 mg/ml, whereby a test solution was prepared. On zeroth day, several different spots of the interscapular region were treated with the test solution by “topical spot-on” such that the test compound was treated per 20 mg/kg per body weight of a dog. For comparison, a negative control was also prepared. Furthermore, on the 33rd day, 50 adult American dog mites (Dermacentor variabilis) to which food was not given were parasitized. On the 7th, 14th, 21 st, 30th and 35th day, 48 hours after each was parasitized, survival of the ticks and mites were observed, and the ticks and mites were removed from the dogs. The ticks were classified according to whether or not the ticks were attached, and the survival state was determined. In the evaluation of efficacy, the same geometric mean calculation as that in Test Example 2 was used. As the test compounds, 1-3, 1-5, 1-10, 1-28, 1-29, and 1-71 were used. Here, the test using American dog mites was performed on 1-28 and 1-71.

[4] = topical spot-on 20 mg/kg, 2nd day
[5] = topical spot-on 20 mg/kg, 7th day
[6] = topical spot-on 20 mg/kg, 14th day
[7] = topical spot-on 20 mg/kg, 21st day
[8] = topical spot-on 20 mg/kg, 30th day
[9] = 5 mg/kg per body weight, 2nd day
[10] = 5 mg/kg per body weight, 5th day

SMILES | pest or weed control at up to 10000 µg/mL [1] [%] | average number of surviving parasites (Rhipicephalus sanguineus; [4]) | efficacy (%) (Rhipicephalus sanguineus; [4]) | average number of surviving parasites (Rhipicephalus sanguineus; [5]) | efficacy (%) (Rhipicephalus sanguineus; [5]) | average number of surviving parasites (Rhipicephalus sanguineus; [6]) | efficacy (%) (Rhipicephalus sanguineus; [6]) | average number of surviving parasites (Rhipicephalus sanguineus; [7]) | efficacy (%) (Rhipicephalus sanguineus; [7]) | average number of surviving parasites (Rhipicephalus sanguineus; [8]) | efficacy (%) (Rhipicephalus sanguineus; [8]) | average number of surviving parasites ([2]; 14th day) | efficacy (%) ([2]; 14th day) | average number of surviving parasites ([2]; 30th day) | efficacy (%) ([2]; 30th day) | other results
C=C1SC(=N\c2ccc(C)cc2)/C(=C/Sc2ccccc2)CC12CCCCC2 [Compound 1-5] | ≥ 50 | 0 | 100 | 0 | 100 | 0 | 100 | 1.8 | 95.4 | 6.5 | 86.8 | 0 | 100 | 8.8 | 98.2 | –
Cc1ccc(/N=C2\SC(C)(C)CC\C2=C/Sc2cccc(C)c2)cc1 [Compound 1-31] | ≥ 50 | – | – | – | – | – | – | – | – | – | – | – | – | – | – | –
C=C1SC(=N\c2ccc(C)cc2)/C(=C/Sc2ccccc2)C(C)C1(C)C (stereo not shown) [Compound 1-28] | ≥ 50 | 0.25 | 99.3 | 0 | 100 | 0 | 100 | 0 | 100 | 1.8 | 97.8 | 0 | 100 | 0 | 100 | average number of surviving parasites [3]: 7.0; efficacy (%) [3]: 88.3%
C=C1SC(=N\c2ccc(C)cc2)/C(=C/Sc2cccs2)CC1(C)C [Compound 1-10] | ≥ 50 | 0.5 | 98.9 | 0 | 100 | 0 | 100 | 0.5 | 99.5 | 4.3 | 95.4 | 0 | 100 | 0 | 100 | –
CC(C)=C1CC(C)C(=C\SCc2ccc(Cl)cc2)/C(=N/c2ccc(C)cc2)S1 (stereo not shown) [Compound 1-71] | ≥ 50 | 5.0 | 90 | 0 | 100 | 0 | 100 | 1.8 | 96.9 | 0 | 86.8 | 0 | 100 | 0 | 100 | average number of surviving parasites [3]: 9.8; efficacy (%) [3]: 80.3%
C=C1SC(=N\c2ccc(C)cc2)/C(=C/Sc2ccccc2)CC1(C)C [Compound 1-3] | ≥ 50 | 0.5 | 98.6 | 0 | 100 | 0 | 100 | 0 | 100 | 6.0 | 92.3 | 0 | 100 | 0 | 100 | –
C=C1SC(=N\c2ccc(C)cc2)/C(=C/Sc2cccs2)C(C)C1(C)C (stereo not shown) [Compound 1-29] | ≥ 50 | 1.3 | 97.3 | 0 | 100 | 0 | 100 | 0 | 100 | 0 | 100 | 0 | 100 | 0 | 100 | –
Cc1ccc(/N=C2\SC(C)(C)CC\C2=C/Sc2ccccc2F)cc1 [Compound 1-32] | ≥ 50 | – | – | – | – | – | – | – | – | – | – | – | – | – | – | average number of surviving parasites (Rhipicephalus sanguineus; [9]): 0; efficacy (%) (Rhipicephalus sanguineus; [9]): (76.6%); average number of surviving parasites (Rhipicephalus sanguineus; [10]): 0; efficacy (%) (Rhipicephalus sanguineus; [10]): (100%)
